Experimental findings from the METLIN SMRT retention time set (Domingo-Almenara et al. 2019) are described below.

SMILES strings stand for the structures.

The series in a line: gradient 5% acetonitrile 3 min, to 50% in 2 min, to 85% in 15 min, held 3 min, 100 µL/min. To be noted: column: Zorbax Extend-C18 2.1 x 50 mm; eluents: water / acetonitrile, 0.1% formic acid. The essentials: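 In both positive and negative ionization mode, a quadrupole time-of-flight mass spectrometer coupled to HPLC analyzed pure standards run in mixtures of ~100 molecules. The Zorbax Extend-C18 column (2.1 × 50 mm, 1.8 μm) was operated at 100 μL/min with water and acetonitrile, each containing 0.1% formic acid. The dead volume was 40 μL and the dwell volume 900 μL. Retention time came from adduct peaks that were computationally picked and individually inspected by hand.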
In turn, `CN1CCN(C(CNC(=O)c2ccc(Cl)cc2)c2ccc(N(C)C)cc2)CC1` (stereo not drawn) showed an RP-LC retention time of 557 s.

The molecule `COc1ccc(S(=O)(=O)N2CCN(c3cc(C)nc(N4CCOCC4)n3)CC2)cc1Cl` registered an RP-LC retention time of 692 s.

`COCCc1noc([C@@H]2CN(Cc3ccc4[nH]ccc4c3)C[C@H]2CO)n1` showed an RP-LC retention time of 592 s.

As to `CCCNC(=O)c1ccc(-c2csc(C)n2)cc1`, the RP-LC retention time was 754 s.

`Cc1ccc(S(=O)(=O)N2CCC3(CC2)CCC(O)(CN2CCCC2)CC3)c(C)c1` had an RP-LC retention time of 602 s.

In the case of `Cc1ccc(NC(=O)Cn2c(N3CCOCC3)nc(C)cc2=O)c(Cl)c1`, the RP-LC retention time stood at 755 s.

With `O=C(NC1CCN(c2cc(-c3cccs3)[nH]n2)C1)c1cc(Cl)ccc1F` (stereo not drawn), the RP-LC retention time came out at 800 s.

In the case of `Cc1ccc(Oc2cccc(C(=O)Nc3ccc(-c4cn5ccccc5n4)cc3)c2)nn1`, the RP-LC retention time was determined as 568 s.

The molecule `CCCCS(=O)(=O)Nc1ccc2c(c1)nc(-c1ccc(C(=O)NCCC)cc1)n2C` showed an RP-LC retention time of 660 s.

In turn, `Cc1cc(C)c2c(N3CCCC3)nc(C(=O)Nc3ccc4c(c3)OCCO4)nc2n1` showed an RP-LC retention time of 583 s.

Take `CCn1c(=O)sc2cc(S(=O)(=O)N3CCC(C(=O)Nc4ccc(F)cc4)CC3)ccc21`: the RP-LC retention time is 917 s.

Regarding `CCCCNC(=O)CCC1CCN(c2cc(NC3CC3)ncn2)CC1`, the RP-LC retention time came to 629 s.

On to `O=S(=O)(Nc1ccc(F)cc1)c1cccnc1Nc1cccc(F)c1`, for which the RP-LC retention time is 1060 s.

In turn, `CCOC(=O)c1cc(S(=O)(=O)N2CCCC2C(=O)NCCC2=CCCCC2)cn1C` (stereo not drawn) yielded an RP-LC retention time of 985 s.

`COc1ccc(-c2noc(-c3ccc(NCCN(C)C)nn3)n2)cc1` came in with an RP-LC retention time of 630 s.

Consider `Cc1noc(-c2ccc(-n3ncc(C(=O)NCCc4c[nH]c5ccccc45)c3C)nc2)n1`, for which the RP-LC retention time came to 898 s.

Consider `Cc1cccc(Sc2nccnc2N2CCCC(C(=O)NCCN3CCOCC3)C2)c1` (stereo not drawn), for which the RP-LC retention time was 686 s.

For `O=C(C1=CN(c2ccc(F)cc2)c2cc(F)ccc2S1(=O)=O)N1CCCCC1`, the RP-LC retention time worked out at 858 s.

Molecule `CC(C)Sc1ccc(CC(=O)NCc2ccsc2)cc1` showed an RP-LC retention time of 908 s.

`CCc1ccc(S(=O)(=O)N2CCC(C(=O)NCc3csc(-c4ccccc4)n3)CC2)cc1` yielded an RP-LC retention time of 999 s.

Take `Cn1cccc1C(=O)Nc1cnn(-c2ncc(N3CCSCC3)cn2)c1`: the RP-LC retention time came to 768 s.

The molecule `CCOc1ccc(-c2noc(Cn3c(=O)n(CC)c(=O)c4ccccc43)n2)cc1OC` showed an RP-LC retention time of 984 s.

As to `COc1ccc(Cl)cc1NC(=O)C1CCCN(C(=O)c2cc(-c3ccccn3)n[nH]2)C1` (stereo not drawn), the RP-LC retention time is 771 s.

`OC(COc1ccc(Br)cc1Br)CN1CCCC1` (stereo not drawn): the RP-LC retention time came to 576 s.

Turning to `Cc1ccc(NC(=O)Cn2c(C)nc3onc(C)c3c2=O)cc1C`, the RP-LC retention time came to 756 s.

In the case of `Cc1ccc(CNC(=O)c2ccc3c(c2)ncn3CCN2CCCC2)cc1C`, the RP-LC retention time is 595 s.

`CN(CCc1noc(-c2ccc(Cl)cc2)n1)C(=O)NCc1ccco1` gave an RP-LC retention time of 868 s.

`COc1ccccc1-c1nc(C2CCN(C(=O)c3cc4cc(Cl)ccc4[nH]3)CC2)no1` had an RP-LC retention time of 1030 s.

With `COc1cccc(-n2c(=O)c3sccc3n(Cc3nc(-c4cccc(C)c4)no3)c2=O)c1`, the RP-LC retention time stood at 978 s.

On to `CCOc1ccc(CC(=O)N2CCCC2c2c(C)noc2C)cc1` (stereo not drawn), for which the RP-LC retention time was found to be 902 s.

`COc1ccccc1S(=O)(=O)NCCc1ccsc1` yielded an RP-LC retention time of 824 s.

Consider `CCOc1ccc(/C=C/C(=O)Nc2nc(-c3ccccc3)cs2)cc1`, for which the RP-LC retention time is 1140 s.

For the molecule `CC(C)N1C(=O)C(C)(C(=O)NCc2cccc(Br)c2)Oc2cccnc21` (stereo not drawn), the RP-LC retention time came to 1030 s.

For `CC1Oc2ccc(-c3csc(NC(=O)COc4ccc(Cl)cc4)n3)cc2N(C)C1=O` (stereo not drawn), the RP-LC retention time turned out to be 1070 s.

`CC1=C(c2ccccc2)S(=O)(=O)N=C1N1CCCN(C(=O)NC(C)(C)C)CC1`: the RP-LC retention time came out at 790 s.

The molecule `CCOC(=O)c1nc(Nc2ccc(OCC(C)C)cc2)c2ccccc2n1` had an RP-LC retention time of 998 s.

Consider `O=C(Nc1nnc2n1CCS2)c1c(F)cccc1F`, for which the RP-LC retention time was 584 s.

For `CCOc1ccccc1CNC(=O)CN1CCN(Cc2ccccc2F)C1=O`, the RP-LC retention time is 854 s.

With `Cc1nc(-c2csc(S(=O)(=O)N3CCCC(C(=O)Nc4ccc(Cl)cc4F)C3)c2)no1` (stereo not drawn), the RP-LC retention time was 1050 s.

As to `Cc1c(-c2noc(-c3ccc4c(c3)OCO4)n2)nnn1-c1ccc(F)cc1`, the RP-LC retention time is 745 s.

Regarding `CCOC(=O)C1CCc2sc(NC(=O)C3COCC(=O)N3Cc3ccccc3)nc21` (stereo not drawn), the RP-LC retention time was 730 s.

For the molecule `COc1ccc(NC(=O)c2ccc(-c3cncnc3)nc2)cc1Cl`, the RP-LC retention time came out at 735 s.

As to `CCc1ccccc1S(=O)(=O)N1CCC(n2cnnc2C(C)C)CC1`, the RP-LC retention time worked out at 784 s.

In turn, `Cn1c(=O)c2c(C(=O)NCC3CCN(Cc4ccc(Cl)cc4)CC3)cc(=O)n(C)c2n(C)c1=O` had an RP-LC retention time of 626 s.

Molecule `Cc1ccnn1-c1ccc(SCC(=O)Nc2cccc(F)c2)nn1` showed an RP-LC retention time of 870 s.

`Cc1cc(=O)n(CC(=O)Nc2cc(F)ccc2F)c(-c2ccc(F)cc2)n1` yielded an RP-LC retention time of 1090 s.

On to `CCc1cccc(NC(=O)Cn2cnc3nc(N4CCCC(C(=O)NC(C)C)C4)sc3c2=O)c1` (stereo not drawn), for which the RP-LC retention time is 755 s.

Regarding `CCOC(=O)c1[nH]c(C)c(C(=O)N2CCC(CC(=O)N3CCN(C4CCCCC4)CC3)CC2)c1C`, the RP-LC retention time was found to be 598 s.

`Cc1nnsc1C(=O)N1CCC(CNC(=O)NC(c2ccccc2)c2ccccc2)CC1` yielded an RP-LC retention time of 759 s.

`O=C(Nc1c(-c2ccccc2)nc2ccc(Cl)cn12)c1cccs1` came in with an RP-LC retention time of 735 s.

`CCCCNC(=O)c1nccnc1NC(=O)c1ccccc1` yielded an RP-LC retention time of 903 s.

Molecule `CC(C)(C)c1ccc(OCC(O)CN2CCN(C(=O)c3ccccc3)CC2)cc1` (stereo not drawn) had an RP-LC retention time of 608 s.

For the molecule `C/C(=N\NC(N)=O)c1ccc(Cl)c(-n2cccc2)c1`, the RP-LC retention time came to 855 s.

`CCOc1ccccc1NC(=O)c1sc(-c2cn(CC)c3ncccc23)nc1C`: the RP-LC retention time was found to be 1250 s.

As to `Cc1nn(CCCC(=O)Nc2cccc(F)c2)c(=O)c2nn(-c3ccccc3)c(C)c12`, the RP-LC retention time was 709 s.

For `CCN1CCCn2cc(S(=O)(=O)Nc3ccc(C)c(F)c3)cc2C1=O`, the RP-LC retention time worked out at 754 s.

Regarding `CN(C)CCNC(=O)c1ccc(-c2ccnc(N3CCCC3)n2)cc1`, the RP-LC retention time stood at 560 s.

`COc1ccc(NC(=O)C2CCN(S(=O)(=O)c3ccc4c(c3)NC(=O)C(C)O4)CC2)cc1` (stereo not drawn) yielded an RP-LC retention time of 783 s.

`CCOc1ccc(-c2noc(CN3N=NC4C(=O)N(c5ccc(CC)cc5)C(=O)C43)n2)cc1OC` (stereo not drawn) came in with an RP-LC retention time of 1030 s.

Molecule `Cn1nc(C(=O)N2CCCC(C(=O)Nc3ccccc3)C2)c2c1CCN(C(=O)C1CCCCC1)C2` (stereo not drawn) came in with an RP-LC retention time of 796 s.

The molecule `COc1ccc2c(c1)C1(CCN(C(=O)Nc3cccc(F)c3)C1)C(=O)N2C` (stereo not drawn) gave an RP-LC retention time of 811 s.

Molecule `CCCCCCNC(=O)C1CC(=O)N(CCc2c[nH]c3ccc(C)cc23)C1` (stereo not drawn) yielded an RP-LC retention time of 864 s.

As for `Cc1ccsc1C(=O)Nc1ccc(N2CCN(C3CCCCC3)C2=O)nc1`, the RP-LC retention time is 863 s.

In the case of `O=C(NCc1ccccc1C(F)(F)F)C1CCCN(c2ncnc3c2oc2ccccc23)C1` (stereo not drawn), the RP-LC retention time was 861 s.

For the molecule `Cc1nc(-c2csc(S(=O)(=O)N3CCCC(C(=O)Nc4ccc(Cl)cc4C)C3)c2)no1` (stereo not drawn), the RP-LC retention time came out at 1040 s.

Turning to `CCc1noc(NC(C)=O)c1-c1ccc(OC)c(S(=O)(=O)Nc2ccc(F)cc2Cl)c1`, the RP-LC retention time came to 841 s.

Regarding `COc1ccc(C2Cn3nnc(C(=O)N4CCC(C(=O)NC5CC5)CC4)c3CO2)cc1` (stereo not drawn), the RP-LC retention time worked out at 699 s.

For `O=C(Cn1nc2c(N3CCCCCC3)nccn2c1=O)Nc1ccc(Cl)cc1F`, the RP-LC retention time is 786 s.

Molecule `O=C(Cn1cnc2nc(N3CCCC(C(=O)NC4CC4)C3)sc2c1=O)Nc1cc(F)ccc1F` (stereo not drawn) displayed an RP-LC retention time of 693 s.

The molecule `Cc1cccn2cc(-c3ccc(NS(=O)(=O)c4ccccc4)cc3)nc12` showed an RP-LC retention time of 617 s.

`O=C(NCc1nc(-c2cccc(-c3csc(C4CC4)n3)c2)no1)c1ccccc1` had an RP-LC retention time of 1030 s.

For `Cc1ccc(C)c(NC(=O)Cn2c(C)cc(-c3nnc(C4CC4)o3)c2C)c1`, the RP-LC retention time worked out at 851 s.

The molecule `Cc1ccc(-c2cc3n(n2)CCCN(C(=O)CCC(=O)c2ccc(F)cc2)C3)cc1` registered an RP-LC retention time of 943 s.

`Cc1nc2ccccc2c(=O)n1Cc1noc(-c2cccc(Br)c2)n1` returned an RP-LC retention time of 948 s.

`CCc1ccccc1N1C(=O)CN(S(=O)(=O)CC)CC1(C)C(=O)NC1CCCC1` (stereo not drawn) gave an RP-LC retention time of 826 s.

Regarding `CCCCNC(=O)CCc1[nH]c(C)c(C(=O)OCC)c1C`, the RP-LC retention time was found to be 762 s.

`COC(=O)c1c(C)[nH]c(C(=O)N2CCCC(C(=O)NCc3cccnc3)C2)c1C` (stereo not drawn) showed an RP-LC retention time of 577 s.

The molecule `O=C(Cn1c(N2CCCCC2)nc2ccccc2c1=O)N1CCN(c2ccccc2)CC1` returned an RP-LC retention time of 976 s.
